Among the data in the METLIN SMRT retention time set (Domingo-Almenara et al. 2019) are RP-LC retention time values, retold here.

A short description of this data set: gradient 5% acetonitrile 3 min, to 50% in 2 min, to 85% in 15 min, held 3 min, 100 µL/min. The note with it: column: Zorbax Extend-C18 2.1 x 50 mm; eluents: water / acetonitrile, 0.1% formic acid. The method in brief:
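Values are retention times taken from adduct peaks that software picked and an analyst inspected. The pure standards were run as mixtures of ~100 molecules on HPLC linked to a quadrupole time-of-flight mass spectrometer, in positive and negative ionization mode. A Zorbax Extend-C18 column (2.1 × 50 mm, 1.8 μm) was used at 100 μL/min with water and acetonitrile, each including 0.1% formic acid.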
As to `Cc1ccc(CNC(=O)C2(C)CN(S(C)(=O)=O)CC(=O)N2c2cccc(C)c2C)cc1` (centres undefined), the RP-LC retention time amounted to 856 s. The same measure for `Cc1ccc(NC(=O)C2CCCN(c3ncnc4c3nc3n4CCCCC3)C2)c(C)c1` (centres undefined): 824 s; for `CC1Oc2ccc(-c3csc(NC(=O)c4cccc(Br)c4)n3)cc2NC1=O` (centres undefined): 995 s; for `O=C(Nc1ccc2c(c1)OCCO2)N1CCC(N2CCN(Cc3ccc(F)cc3)C2=O)CC1`: 773 s.

With `O=C(CCc1c[nH]c2ccccc12)N1CC(n2cc(COCC3CC3)nn2)C1`, the RP-LC retention time amounted to 719 s. The compound `CC1CCN(C(=O)c2cn(-c3cc(-c4nc(C5CC5)no4)ccn3)cn2)CC1` showed an RP-LC retention time of 907 s. `Cc1ncc2c(n1)C[C@@H]1CC[C@H]2N1C(=O)Cc1ccccc1` yielded an RP-LC retention time of 648 s. The same measure for `O=C(Nc1ncc(Cc2cccc3ccccc23)s1)C1CC1`: 878 s.

As to `COc1ccc(Nc2c(C(=O)N3CCCC(C)C3)cnc3nc(C)ccc23)cc1OC` (centres undefined), the RP-LC retention time was determined as 610 s. `O=C(COc1ccccc1F)NCC1CCN(S(=O)(=O)C2CC2)CC1`: the RP-LC retention time was determined as 712 s. To `CCNC(=O)N1CC=C(C(=O)Nc2ccc(C)cc2)CC1` belongs 798 s; to `COc1ccc(CNC(=O)CN2C(=O)NC3(CCCCC3)C2=O)cc1OC`, 659 s. As for `CCCNC(=O)CCc1nc2ccccc2n(CC(=O)Nc2ccccc2C(=O)OC)c1=O`, the RP-LC retention time turned out to be 843 s. In turn, `COc1ccc(S(=O)(=O)N2CCN(c3cc(C)nc(Nc4ccc(C)cc4)n3)CC2)cc1Cl` came in with an RP-LC retention time of 801 s. In turn, `CCc1ccc(S(=O)(=O)N2CCC3(CC2)NCCN=C3NCc2ccccc2)cc1` returned an RP-LC retention time of 742 s. To `CC(C)c1cc(N2CCN(c3ccccn3)CC2)n2c(nc3ccccc32)c1C#N` belongs 695 s; to `CN1CCCc2cc(C(CNC(=O)C(=O)NCc3ccc4c(c3)OCO4)N3CCCC3)ccc21` (centres undefined), 709 s. The compound `CC(C)c1noc(COC2CCN(C(=O)Cn3ccnc3)CC2)n1` gave an RP-LC retention time of 592 s. `CCc1ccc(NC(=O)C2CCCN(S(=O)(=O)c3c[nH]c(C(=O)N4CCCC4)c3)C2)cc1` (centres undefined) gave an RP-LC retention time of 873 s. To `Cc1ccc(S(=O)(=O)N2C[C@@H](F)C[C@H]2C(=O)N2CCOCC2)c(C)c1` belongs 740 s; to `COc1cccc(OC)c1C(=O)Nc1ccc2c(c1)Sc1ncccc1C(=O)N2C`, 706 s; to `Cc1ccccc1CNC(=O)c1cn2c(n1)CCCC2`, 762 s. As to `O=C(Nc1cccc(F)c1)N1CCC(n2c(-c3ccco3)nc3cccnc32)C1` (centres undefined), the RP-LC retention time stood at 767 s.

Take `CCOc1ccc(S(=O)(=O)N2C[C@@H]3C[C@H](NC(=O)c4ccccc4)[C@H]2C3)cc1`: the RP-LC retention time amounted to 900 s. To `O=C(NC1CCc2nnc(C3CC3)n2CC1)c1cnco1` (centres undefined) belongs 537 s; to `O=C(NCCc1csc(-c2cccs2)n1)C1CCN(S(=O)(=O)c2cccc(Cl)c2)CC1`, 975 s; to `CCOC(=O)CCNC(=O)N1CCCCCCN(C)C(=O)CC1`, 627 s. The same measure for `CCOc1ccc(-c2ccc(=O)n(Cc3nc(-c4cccc(C)c4)no3)n2)cc1`: 1120 s; for `Cc1noc(C)c1-c1ccc(S(=O)(=O)N2CCc3ccccc32)cc1`: 1040 s. To `COCCn1c(C(CNc2cccc(C)c2)CC(=O)O)nc2ccccc21` (centres undefined) belongs 620 s; to `Cc1cc(NC(=O)c2ccccc2-c2nc(-c3ccccc3)no2)no1`, 925 s. Compound `Cc1sc(-c2cc(C(F)(F)F)[nH]n2)cc1S(=O)(=O)N1CCN(C2CCCCC2)CC1` gave an RP-LC retention time of 726 s.

`O=c1ccn(-c2ccc(Cl)cc2)nc1-c1nc(-c2ccccc2)no1` had an RP-LC retention time of 938 s.

Compound `CCOc1ccccc1NS(=O)(=O)c1cc(-c2c(C)noc2NC(C)=O)ccc1OC` returned an RP-LC retention time of 798 s. For the compound `C=CCn1ccc2c(OCC(=O)Nc3cc(C)on3)cccc2c1=O`, the RP-LC retention time turned out to be 750 s. Compound `COc1cc(-c2nc3ccc(Cl)cn3c2Nc2ccc(Cl)cc2)ccc1O` had an RP-LC retention time of 746 s. In turn, `CC(=O)Nc1cccc(C2=NN(C(C)=O)C(c3ccc4nccnc4c3)C2)c1` (centres undefined) showed an RP-LC retention time of 617 s. Regarding `O=C(NC1CC1)c1ccc(-n2cccc2)nc1`, the RP-LC retention time turned out to be 728 s. To `CCOCCCNC(=O)N1CCCCCC1c1cccc(C)c1` (centres undefined) belongs 954 s; to `CCn1ccc(C(=O)N2CC[C@H]3N(CCOC)S(=O)(=O)CC[C@]3(C(=O)N3CCOCC3)C2)n1`, 622 s.

`CCOc1ccccc1CN1CCc2nc(N3CCN(c4ccccn4)CC3)ncc2C1`: the RP-LC retention time turned out to be 583 s. The same measure for `Cc1cccc(Sc2nccnc2N2CCC(C(=O)NC3CC3)CC2)c1`: 886 s. The same measure for `Cn1ncc2c3ccccc3n(CCCC(=O)N3CCN(c4ccccc4)CC3)c2c1=O`: 918 s; for `COCCN1C(=O)CS(=O)C12CCN(C(=O)Nc1ccc3c(c1)OCCO3)CC2` (centres undefined): 608 s. To `Cc1ccc(CNC(=O)CN2C(=O)CCCc3cc(S(=O)(=O)N4CCC(C)CC4)ccc32)cc1` belongs 961 s.

Turning to `OCCN1CCN(CC(O)COCc2ccc(Cl)cc2)CC1` (centres undefined), the RP-LC retention time is 530 s. Regarding `O=C(CCCc1c[nH]c2ccccc12)N1CCN2CCS(=O)(=O)N(C3CC3)C(=O)C2C1` (centres undefined), the RP-LC retention time was 824 s. To `CCc1nc(-c2ccc(S(=O)(=O)N3CCC(C(=O)N4CCc5ccccc54)CC3)cc2)no1` belongs 802 s; to `Cc1noc(C)c1Cc1ccc(C(=O)N2CCCCCCN(C)C(=O)[C@@H]3CCC[C@@H]32)o1`, 814 s. As for `CC(C)NC(=O)C1CCCN(c2nc3ncn(CC(=O)Nc4ccccc4)c(=O)c3s2)C1` (centres undefined), the RP-LC retention time is 686 s. To `O=C(Nc1cc(F)cc(F)c1)N1CCC(CCNC(=O)C2(c3ccccc3)CC2)CC1` belongs 984 s.

`Cc1ccc(CNC(=O)Cc2csc3nc(-c4cccc(Br)c4)cn23)cc1`: the RP-LC retention time was 963 s. To `Cc1ccc(NC(=O)N2CCC(N3CCN(Cc4ccccn4)C(=O)C3=O)CC2)cc1Cl` belongs 658 s; to `Cn1cc(CC(=O)NCc2ccc(F)cc2F)c2cccnc21`, 688 s; to `COc1cc(C)c(C)cc1S(=O)(=O)Nc1ccc2c(c1)N(S(C)(=O)=O)CCC2`, 844 s. Take `Cc1ccc(CC(=O)NCc2c(C)noc2C)cc1`: the RP-LC retention time turned out to be 742 s. To `CN(Cc1nc2ccccc2[nH]1)C(=O)c1ccco1` belongs 537 s. Compound `CC1CCN(S(=O)(=O)c2ccc(-c3nnc(C(=O)NCCCN4CCN(C)CC4)o3)cc2)CC1` yielded an RP-LC retention time of 623 s. As for `CC(C)NC(=O)c1ccc(OCC2CCCN2C(=O)c2ccc(N(C)C)cc2)cc1` (centres undefined), the RP-LC retention time was found to be 799 s.
